Results taken from patent publication US8507460B2, “Substituted 3′,5′-cyclic phosphates of purine nucleotide compounds and pharmaceutical compositions for the treatment of viral infections” (priority 2011, dated 2013).

How the values were obtained:
[1] = tested on: HCV genotype 1b replicon; assay: HCV Replicon Assay (Zluc luciferase reporter); type: cell-based
Procedure: Huh-7-derived cell line (Zluc) that harbors an HCV genotype 1b replicon and a luciferase reporter gene was grown in Dulbecco's Modified Eagle Medium (DMEM) supplemented with 10% fetal bovine serum, 2 mM GlutaMAX, 1% MEM nonessential amino acids, 100 IU/mL penicillin, 100 μg/mL streptomycin, and 0.5 mg/mL Geneticin® (G418). For dose response testing the cells were seeded in 96-well plates at 7.5×10^3 cells per well in a volume of […], and incubated at 37° C./5% CO2. Drug solutions were made up freshly in Huh-7 media as 2× stocks. […] 5-fold dilutions were prepared from these stocks in DMEM without G418. At least three hours after Zluc cells were seeded, drug treatment was initiated by adding 50 μL of drug dilutions to the plates in duplicate. Final concentrations of drug ranged from 100 μM to 0.0000512 μM. Cells were then incubated at 37° C./5% CO2. Alternatively, compounds were tested at two concentrations (1 μM and 10 μM). […] After 72 hours of incubation, the inhibition of HCV replication was measured by quantification of photons emitted after mono-oxygenation of 5′-fluoroluciferin to oxyfluoroluciferin by firefly luciferase. For this, media was removed from the plates via gentle tapping. Fifty microliters of ONE-glo luciferase assay reagent was added to each well. The plates were shaken gently for 3 min at room temperature and luminescence was measured on a Victor^3 V 1420 multilabel counter (Perkin Elmer) with a 1 second read time using a 700 nm cut-off filter. The EC50 values were calculated from dose response curves from the resulting best-fit equations determined by Microsoft Excel and XLfit 4.1 software. When screening at two fixed concentrations, the results were expressed as % inhibition at 1 μM and 10 μM.

[2] = tested on: Zluc cells; assay: Cytotoxicity evaluation, CellTiter-Blue Cell Viability Assay; type: cell-based; conditions: read-out: HCV Replicon CC50
Procedure: For cytotoxicity evaluation, Zluc cells were treated with compound as described above, and cell viability was monitored using the CellTiter-Blue Cell Viability Assay (Promega) by adding 20 μL of the assay solution to each well. The plates were then incubated at 37° C./5% CO2 for at least 3 hours.

[3] = Stability in simulated gastric and intestinal fluids; type: in vitro ADME; conditions: 100 μM, 2 hours at 37° C., percent of peak area at time zero
Procedure: Simulated gastric and intestinal fluids containing pepsin and pancreatin respectively were prepared according to the U.S. Pharmacopoeia USP291 procedure (www.pharmacopeia.cn/v29240/usp29nf24s0_ris1s126.html). Test compound (final concentration 100 μM) was incubated in duplicate in the appropriate fluid for 2 hours at 37° C. The samples were quenched with 200 μl cold acetonitrile, vortexed for 30 seconds and then centrifuged at 16,100 g for 10 min. The supernatants were analyzed by HPLC on a C-18 column with UV detection at 252 nm. The time 0 samples were prepared by adding SGF or SIF fluid to the quenching solvent followed by the test compound. Stability of the compound was determined by peak area the test compound after incubation and calculated as percent of the peak area observed at time zero.

[4] = Stability in fresh human whole blood; type: in vitro ADME; conditions: 0.5 μM, percent unchanged
Procedure: (§1) Stability of test compounds were determined in fresh human whole blood with K2EDTA as the anticoagulant (stored refrigerated at 2-8° C. and used within 7 days of receipt). The experiment was conducted with three replicates for each time point. Whole blood, pre-incubated at 37° C. for 10-15 minutes, was fortified with a solution of test compound for a final concentration of 0.5 μM and mixed for 30 sec. At intervals (0, 0.5, 1 and 2 hr), three […] aliquots were combined with 200 μL (each) of an ice-cold solution of the internal standard (carbutamide 500 ng/mL in acetonitrile). The samples were vortexed for 30 sec and then centrifuged at 16,100 g for 5 min. The supernatant was analyzed by LC-MS/MS. The MS peak area ratio of the test compound versus the internal standard was calculated and percent unchanged test compound was calculated for each time point using this ratio.

[5] = Stability in mouse blood; type: in vitro ADME; conditions: mouse whole blood, on ice, percent unchanged
Procedure: as §1
The stability in mouse blood was determined on ice at 0, 0.5 and 1 hr as above.

[6] = Stability in rat whole blood; type: in vitro ADME
[7] = Stability in liver and intestinal subcellular fractions (microsomes and S9); type: in vitro ADME, human; conditions: 10 μM, NADPH, 60 min, percent unchanged
Procedure: Stability of test compounds were determined in subcellular fractions (microsomes and S9) of human liver and intestine in duplicate for each matrix. Pooled liver and intestinal microsomal, intestinal and liver S9 proteins (1.0 mg/mL), suspended in incubation buffer (100 mM potassium phosphate, pH […], and 0.1 mM EDTA), were preincubated for 5 min at 37° C. with 10 μM of a test compound from a 10 mM stock solution in DMSO (final DMSO concentration was 0.1%); the reaction was initiated by the addition of NADPH (3 mM final concentration). At specific times (0 and 60 min), 0.1 mL samples were taken and the reaction terminated by the addition of 4 volumes of stop solution (acetonitrile with 500 ng/mL carbutamide as an internal standard). The samples were vortexed for 30 sec and then centrifuged at 16,000 g for 10 min. 100 μL of supernatants were transferred to 96 deep-well plates preloaded with 100 μL distilled water and analyzed after mixing by LC-MS/MS. The MS peak area ratio of the test compound versus the internal standard was calculated and percent unchanged test compound over 60 minutes was calculated using this ratio.

[8] = tested on: fresh human hepatocytes; assay: Release of active metabolite in fresh human hepatocytes; type: in vitro ADME; conditions: 10 μM
Procedure: Plates of fresh human and mouse hepatocytes were obtained on ice. The medium was removed and replaced with hepatocyte culture medium (William's E supplemented with penicillin-streptomycin, 1% L-glutamine, 1% insulin-transferrin-selenium and 0.1 μM Dexamethasone (Invitrogen) or with Invitro GRO HI medium complemented with Torpedo antibiotics (Celsis)). Cells were left overnight in an incubator at 37° C. to acclimatize to culture and the medium.
Hepatocyte incubations were conducted at a final volume of 0.5 mL hepatocyte culture medium/well (0.8 million cells/well for human and 0.5 million cells/well for mouse; 12 well plate no overlay, collagen coat). Culture medium from overnight incubation of cells was removed and replaced with fresh medium, pre-warmed to 37° C., containing 10 μM of test compound from a stock solution in DMSO (final DMSO concentration was 0.1%). At each specific time point, incubation medium was removed and cell monolayers were carefully washed two times with ice-cold PBS. Following the last wash, all PBS was carefully removed and 1.0 mL of extraction solution (ice-cold 70% methanol/30% water) added. Cells were scraped off and suspended in the extraction solution, transferred to 2 mL polypropylene microfuge tubes and intracellular contents extracted overnight at −20° C.
After the overnight treatment the cellular extracts were prepared by centrifugation at 16,000×g for 10 min to remove cellular debris. The remaining sample was then dried using a refrigerated centrivap concentrator. Dry extracts were reconstituted in 1000 μL of HPLC-grade water and centrifuged at 16,000×g for 10 min. Aliquots (100 μL each) of the supernatant were transferred into a 96 well plate and internal standard (4 ng/mL final concentration) was added as the internal standard (IS) for LC-MS/MS analysis.
The incubation time points were 6, 24 and 48 hours for human hepatocytes and 1, 4, 8, 12 and 24 hours for mouse hepatocytes.

CCOc1nc(N)nc2c1ncn2[C@@H]1O[C@@H]2COP(=O)(OC(C)C)O[C@H]2[C@@]1(C)O (single isomer, unassigned) [Compound 1b]
selectivity index ([1]; HCV replicon assay, Zluc cells): greater than 80
EC50 ([1]; Zluc cells (Huh-7-derived, HCV genotype 1b replicon, luciferase reporter), 72 hours): 1 to 10 µM
CC50 [2]: > 50 µM
Stability SGF ([3]; simulated gastric fluid with pepsin): 99%
Stability SIF ([3]; simulated intestinal fluid with pancreatin): 101%
Stability WB_Human (37° C.; 2 hr) [4]: 103%
Stability WB_Mouse (ice; 1 hr) [5]: 96%
Stability WB_Rat (ice; 1 hr) [6]: 96%
Stability HIS9 (1 hr) ([7]; HIS9 1.0 mg/mL): 104%
Stability HIM (1 hr) ([7]; human intestinal microsome 1.0 mg/mL): 102%
Stability HLS9 (1 hr) ([7]; human liver S9 fraction 1.0 mg/mL): 112%
Stability HLM (1 hr) ([7]; human liver microsome 1.0 mg/mL): 96%
FHH TP (6 hr) ([8]; 6 hr): BLD^a
FHH TP (24 hr) ([8]; 24 hr): BLD^a
